Experiments:
Stat3 = Stat3 (Homo sapiens, UniProt P40763); test: Stat3/pY-peptide binding assay (SPR, BIAcore); settings: recombinant Stat3 500 nM; immobilized EGFR Y1068 phosphododecapeptide; 25°C; read-out: SPR IC50, inhibition of Stat3 binding to pY peptide ligand
Procedure: A control (Stat3 with DMSO but without compound) was run at the beginning and the end of each cycle (40 sample injections) to ensure that the integrity of the sensor chip was maintained throughout the cycle run. The average of the two controls was normalized to 100% and used to evaluate the effect of each compound on Stat3 binding. Responses were normalized by dividing the value at 2 min by the response obtained in the absence of compounds at 2 min and multiplying by 100.

[1] = test system: IFN-γ-mediated Stat1 phosphorylation; test: Immunoblot of IFN-γ-mediated Stat1 phosphorylation in HepG2 cells; type: cell-based, human; settings: compound 300 µM 1 hour, IFN-γ 30 ng/ml 30 min
Procedure: (§1) The human hepatocellular carcinoma cell line (HepG2) was grown in 6-well plates under standard conditions. Cells were pretreated with compounds (0, 1, 3, 10, 30, 100 and 300 µM) for 1 hour then stimulated under optimal conditions with either interleukin-6 (IL-6; 30 ng/ml for 30 min) to activate Stat3 or interferon gamma (IFN-γ; 30 ng/ml for 30 min) to activate Stat1 [28]. Cultures were then harvested and proteins extracted using high-salt buffer, as described. Briefly, extracts were mixed with 2× sodium dodecyl sulfate (SDS) sample buffer (125 mM Tris-HCL pH 6.8; 4% SDS; 20% glycerol; 10% 2-mercaptoethanol) at a 1∶1 ratio and heated for 5 minutes at 100°C. Proteins (20 µg) were separated by 7.5% SDS-PAGE and transferred to polyvinylidene fluoride (PVDF) membrane (Millipore, Waltham, MA) and immunoblotted. Prestained molecular weight markers (BioRad; Hercules, CA) were included in each gel. Membranes were probed serially with antibody against Stat1 pY701 or Stat3 pY705 followed by antibody against Stat1 or Stat3 (Transduction labs, Lexington, KY) then antibody against β–actin (Abcam, Cambridge, MA). Membranes were stripped between antibody probing using Restore™ Western Blot Stripping Buffer (Thermo Fisher Scientific Inc., Waltham, MA) per the manufacturer's instructions. Horseradish peroxidase-conjugated goat-anti-mouse IgG was used as the secondary antibody (Invitrogen Carlsbad, CA) and the membranes were developed with enhanced chemiluminescence (ECL) detection system (Amersham Life Sciences Inc.; Arlington Heights, IL.).
Figure 2 Effect of compounds on ligand-mediated Stat3 and Stat1 phosphorylation. […] Cells were then stimulated with IL-6 (30 ng/ml) for 30 min. Protein extracts of cells were separated by SDS-PAGE, blotted and developed serially with antibodies to pStat3, total Stat3 and β-actin. Blots were stripped between each antibody probing. Band intensities were quantified by densitometry. The value of each pStat3 band was divided by its corresponding total Stat3 band intensity; the results were normalized to the DMSO-treated control value. This value was plotted as a function of the log compound concentration. The best-fitting curve was determined using 4-Parameter Logistic Model/Dose Response/XLfit 4.2, IDBS software and was used to calculate the IC50 value (Table 1). Each panel is representative of 3 or more experiments. In panel G, HepG2 cells were pretreated with DMSO alone or DMSO containing each of the compounds at a concentration of 300 µM for 60 min. Cells were then stimulated with IFN-γ (30 ng/ml) for 30 min. Protein extracts of cells were separated by SDS-PAGE and immunoblotted serially with antibodies to pStat1, total Stat1 and β-actin. Blots were stripped between each immunoblotting. The results shown are representative of 2 or more experiments.

[2] = test system: cell lines MDA-MB-453 and MCF7; test: Apoptosis assay, summary over the cell lines without constitutive Stat3 activity; type: cell-based; settings: Homo sapiens, concentrations up to 300 µM, read-out: EC50 apoptosis induction, MDA-MB-453 and MCF7
Procedure: (§2) Human breast carcinoma cell lines MDA-MB-468, MDA-MB-231, MBA-MD-435 and MCF7 were kindly provided by Dr. Powel H. Brown (Breast Cancer Center, Baylor College of Medicine). Breast cancer cell line, MDA-MB-453 was kindly provided by Dr. Shou Jiang (Breast Cancer Center, Baylor College of Medicine). All cell lines were grown in DMEM medium supplemented with 10% fetal bovine serum (FBS), 25,000 units penicillin G, 25,000 µg streptomycin, and 131.4 mg L-Glutamine and cultured in the incubator under the condition of 95% air, 5% CO2 at 37°C [33]. Cells were seeded at 2,500 cells/cm^2 into 12-well plates. At 80% confluency, cells were washed with PBS and supplemented with fresh medium containing compound or the topoisomerase I-inhibitor, camptothecin, at 0, 0.1, 0.3, 1, 3, 10, 30, 100, 300 µM. At 24 hours, treatment was terminated by removing the medium from each well. Cells were lysed with cell lysis buffer (600 µl for 30 minutes at 25°C). Cell lysate (200 µl) was centrifuged at 200 g for 10 minutes and 20 µl of each supernatant was assayed for nucleosomes using the Cell Death Detection ELISA (Roche Applied Science) as described by the manufacturer. The percent maximum nucleosome level was calculated by dividing the nucleosome level by the maximum nucleosome level achieved in the assay and multiplying by 100.
(§3) MDA-MB-468 (panel A), MDA-MB-231 (panel B), MDA-MB-435 (panel C), MCF7 (panel D) and MDA-MB-453 (panel E) were seeded in 12-well plates, grown overnight then treated with the indicated compound for 24 hr. Cells were centrifuged and the supernatants assayed for nucleosome levels by ELISA. The percent maximum nucleosome level was calculated (nucleosome level ÷ maximum nucleosome level achieved in the assay ×100) and plotted as a function of the log compound concentration. The best-fitting curve was determined using 4-ParameterLogistic Model/Dose Response One Site/XLfit 4.2, IDBS software and was used to determine the EC50 value (Table 3).

[3] = test system: breast cancer cell lines with constitutive Stat3 activity—MDA-MB-468, MDA-MB-231 and MDA-MB-435; test: Apoptosis assay, summary over the cell lines with constitutive Stat3 activity; type: cell-based; settings: Homo sapiens, 24 hr, read-out: EC50 apoptosis induction, range over three cell lines
Procedure: as §2, §3

[4] = test system: IL-6-mediated phosphorylation of Stat3; test: Immunoblot of IL-6-mediated Stat3 phosphorylation in HepG2 cells; type: cell-based; settings: Homo sapiens, compound 60 min, then IL-6 30 ng/ml 30 min, read-out: pStat3 IC50, inhibition of IL-6-mediated Stat3 phosphorylation
Procedure: as §1
Figure 2 Effect of compounds on ligand-mediated Stat3 and Stat1 phosphorylation. […] Cells were then stimulated with IL-6 (30 ng/ml) for 30 min. Protein extracts of cells were separated by SDS-PAGE, blotted and developed serially with antibodies to pStat3, total Stat3 and β-actin. Blots were stripped between each antibody probing. Band intensities were quantified by densitometry. […] The best-fitting curve was determined using 4-Parameter Logistic Model/Dose Response/XLfit 4.2, IDBS software and was used to calculate the IC50 value (Table 1). […]

Chain of Stat3 (P40763 whole entry, species assumed): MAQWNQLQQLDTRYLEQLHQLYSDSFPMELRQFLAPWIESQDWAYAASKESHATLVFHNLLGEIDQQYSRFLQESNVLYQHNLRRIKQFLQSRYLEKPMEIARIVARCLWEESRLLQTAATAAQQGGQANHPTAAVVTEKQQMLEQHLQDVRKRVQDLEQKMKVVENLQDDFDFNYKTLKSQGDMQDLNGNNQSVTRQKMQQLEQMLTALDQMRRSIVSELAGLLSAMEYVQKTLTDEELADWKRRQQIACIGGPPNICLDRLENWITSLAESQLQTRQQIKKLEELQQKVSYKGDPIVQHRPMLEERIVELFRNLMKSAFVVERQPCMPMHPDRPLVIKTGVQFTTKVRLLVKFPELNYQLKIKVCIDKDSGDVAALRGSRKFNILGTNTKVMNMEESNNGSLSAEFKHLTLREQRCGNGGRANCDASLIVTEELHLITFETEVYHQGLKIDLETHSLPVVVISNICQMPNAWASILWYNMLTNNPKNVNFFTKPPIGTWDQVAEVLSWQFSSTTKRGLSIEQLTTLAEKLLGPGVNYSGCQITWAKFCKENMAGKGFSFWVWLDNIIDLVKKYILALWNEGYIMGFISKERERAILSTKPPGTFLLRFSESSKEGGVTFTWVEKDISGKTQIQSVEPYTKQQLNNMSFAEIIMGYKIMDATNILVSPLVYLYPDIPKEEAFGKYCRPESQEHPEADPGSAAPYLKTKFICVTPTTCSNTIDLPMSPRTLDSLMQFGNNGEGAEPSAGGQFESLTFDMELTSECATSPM

IC50 (Stat3): 447 µM
EC50 [2]: > 300 µM
EC50 [3]: 2.3 to 26.9 µM
IC50 [4]: 91 µM
SMILES: O=C(O)c1ccc(C=CC(=O)c2ccc3c(c2)OCCO3)cc1 [Cpd3, 4-[3-(2,3-dihydro-1,4-benzodioxin-6-yl)-3-oxo-1-propen-1-yl]benzoic acid]
Block of IFN-γ-stimulated Stat1 phosphorylation [1]: did not

Source: article PMC2653189 (PLoS ONE, 2009)
